Data as given in patent publication EP0796243B1, “DIAMINOCYCLOBUTENE-3,4-DIONES” (AMERICAN HOME PRODUCTS CORPORATION, priority 1994, dated 1996).

Test system: Isolated Rat Bladder Strips
Test: Inhibition of contractions in isolated rat bladder strips (KCl-enhanced contractile activity)
Parameters: species or system Sprague-Dawley rats
Conditions: 0.5 h, concentration required to elicit 50% inhibition of pre-drug contractile activity, additional 15 mM KCl, 30 minute challenge per concentration, value ± spread as printed
Text: Sprague-Dawley rats (150-200 g) are rendered unconscious by CO2 asphyxiation and then euthanized by cervical dislocation. The bladder is removed into warm (37 deg.C) physiological salt solution (PSS) of the following composition (mM): NaCl, 118.4; KCl, 4.7; CaCl2, 2.5; […]; NaHCO3, 24.9; KH2PO4, 1.2; glucose, 11.1; EDTA, 0.023; gassed with […]; pH 7.4. The bladder is opened and then cut into strips 1-2 mm in width and 7-10 mm in length. The strips are subsequently suspended in a 10 mL tissue bath under an initial resting tension of 1.5 g. The strips are held in place by two surgical clips one of which is attached to a fixed hook while the other is attached to an isometric force transducer. […] The carbachol is then washed out and the tissue allowed to relax to its resting level of activity. Following a further 30 min period of recovery an additional 15 mM KCl are introduced into the tissue bath. This increase in KCI concentration results in a large increase in the amplitude of spontaneous contractions (and initiation of contractions in previously quiescent strips) superimposed upon a small increase in basal tone. Following stabilization of this enhanced level of contractile activity, incremental increases in the concentration of test compound or vehicle are introduced into the tissue bath. Contractile activity is measured for each compound or vehicle concentration during the last minute of a 30 minute challenge.
The isometric force developed by the bladder strips is measured using a […] to elicit 50% inhibition of pre-drug contractile activity (IC50 concentration) is calculated from this concentration-response curve.

IC50 | SMILES
0.5 µM | CCC(=O)N(c1ccc(C#N)cc1)c1c(NC(C)C(C)(C)C)c(=O)c1=O (stereo not drawn) [Example 1, N-(4-Cyano-phenyl)-N-[3,4-dioxo-2-(1,2,2-trimethyl-propylamino)-cyclobut-1-enyl]-propionamide]
3.2 ± 0.92 µM | CC(=O)N(c1cccc(C#N)c1)c1c(NC(C)C(C)(C)C)c(=O)c1=O (stereo not drawn) [Example 14, N-(3-Cyano-phenyl)-N-[3,4-dioxo-2-(1,2,2-trimethyl-propylamino)-cyclobut-1-enyl]-acetamide]
4.9 ± 1.2 µM | CCCCC(=O)N(c1ccncc1)c1c(N[C@H](C)C(C)(C)C)c(=O)c1=O [Example 26, (R)-(-)-N-(3,4-Dioxo-2-(1,2,2-trimethyl-propylamino)-cyclobut-1-enyl]-N-(pyridin-4-yl)-pentylamide]
9.7 ± 4.1 µM | CC(=O)N(c1ccc(C#N)cc1)c1c(NC(C)C)c(=O)c1=O [Example 11, N-(4-Cyano-phenyl)-N-[3,4-dioxo-2-isopropylamino-cyclobut-1-enyl]-acetamide]
0.61 ± 0.2 µM | CCCCC(=O)N(c1ccc(C#N)cc1CC)c1c(N[C@H](C)C(C)(C)C)c(=O)c1=O [Example 31, (R)-(-)-N-(4-Cyano-2-ethyl-phenyl)-N-[3,4-dioxo-2-(1,2,2-trimethyl-propylamino)-cyclobut-1-enyl]-pentanamide]
0.17 ± 0.004 µM | CCCC(=O)N(c1ccc(C#N)cc1CC)c1c(N[C@H](C)C(C)(C)C)c(=O)c1=O [Example 27, (R)-(-)-N-(4-Cyano-2-ethyl-phenyl)-N-[3,4-dioxo-2-(1,2,2-trimethyl-propylamino)-cyclobut-1-enyl]-butyramide]
0.63 ± 0.065 µM | CCc1cc(C#N)ccc1N(C(=O)C1CCCCC1)c1c(N[C@H](C)C(C)(C)C)c(=O)c1=O [Example 32, (R)-(-)-N-(4-cyano-2-ethyl-phenyl)-N-[3,4-dioxo-2-(1,2,2-trimethyl-propylamino)-cyclobut-1-enyl]-cyclohexanecarboxamide]
2.5 ± 0.2 µM | CC(=O)N(c1ccncc1)c1c(N[C@H](C)C(C)(C)C)c(=O)c1=O [Example 24, (R)-N-[3,4-Dioxo-2-(1,2,2-trimethyl-propylamino)-cyclobut-1-enyl]-N-(pyridin-4-yl)-acetamide]
0.57 ± 0.2 µM | CC(C)C(=O)N(c1ccc(C#N)cc1)c1c(NC(C)C(C)(C)C)c(=O)c1=O (stereo not drawn) [Example 6, N-(4-Cyano-phenyl)-N-[3,4-dioxo-2-(1,2,2-trimethyl-propylamino)-cyclobut-1-enyl]-isobutyramide]
0.35 ± 0.1 µM | CCCCCC(=O)N(c1ccc(C#N)cc1)c1c(NC(C)C(C)(C)C)c(=O)c1=O (stereo not drawn) [Example 5, Hexanoic acid (4-cyano-phenyl)-[3,4-dioxo-2-(1,2,2-trimethyl-propylamino)-cyclobut-1-enyl]-amide]
0.35 ± 0.1 µM | CCc1cc(C#N)ccc1N(C(C)=O)c1c(N[C@H](C)C(C)(C)C)c(=O)c1=O [Example 30, (R)-(-)-N-(4-Cyano-2-ethyl-phenyl)-N-[3,4-dioxo-2-(1,2,2-trimethyl-propylamino)-cyclobut-1-enyl]-acetamide]
10.6 µM | CC(=O)N(c1ccncc1)c1c(NC2CC3CCC2C3)c(=O)c1=O (racemic) [Example 21, (endo)-N-[2-(Bicyclo[2,2,1]hept-2-ylamino)-3,4-dioxo-cyclobut-1-enyl]-N-(pyridin-4-yl)-acetamide]
0.31 ± 0.05 µM | CC(=O)N(c1ccc(C#N)cc1)c1c(N[C@H](C)C(C)(C)C)c(=O)c1=O [Example 10, (R)-(-)-N-(4-Cyano-phenyl)-N-[3,4-dioxo-2-(1,2,2-trimethyl-propylamino)-cyclobut-1-enyl]-acetamide]
10.8 ± 1.6 µM | CC(C)CC(=O)N(c1ccncc1)c1c(N[C@H](C)C(C)(C)C)c(=O)c1=O [Example 25, (R)-N-[3,4-Dioxo-2-(1,2,2-trimethyl-propylamino)-cyclobut-1-enyl]-3-methyl-N-(pyridin-4-yl)-butyramide]
1.24 ± 0.54 µM | CCCCNc1c(N(C(C)=O)c2ccc(C#N)cc2)c(=O)c1=O [Example 16, N-(2-Butylamino-3,4-dioxo-cyclobut-1-enyl)-N-(4-cyano-phenyl)-acetamide]
0.23 ± 0.05 µM | CC(=O)N(c1ccc(C#N)cc1)c1c(NC(C)C(C)(C)C)c(=O)c1=O (stereo not drawn) [Example 9, N-(4-Cyano-phenyl)-N-[3,4-dioxo-2-(1,2,2-trimethyl-propylamino)-cyclobut-1-enyl]-acetamide]
0.37 ± 0.08 µM | CC(Nc1c(N(C(=O)C=Cc2ccccc2)c2ccc(C#N)cc2)c(=O)c1=O)C(C)(C)C (stereo not drawn) [Example 7, N-(4-Cyano-phenyl)-N-[3,4-dioxo-2-(1,2,2-trimethyl-propylamino)cyclobut-1-enyl]-3-phenyl-acrylamide]
0.27 ± 0.02 µM | C/C=C/C(=O)N(c1ccc(C#N)cc1CC)c1c(N[C@H](C)C(C)(C)C)c(=O)c1=O [Example 29, (R)-(-)-N-(4-Cyano-2-ethylphenyl)-N-[3,4-dioxo-2-(1,2,2-trimethyl-propylamino)-cyclobut-1-enyl]-crotonamide]
0.22 ± 0.2 µM | CCC(=O)N(c1ccc(C#N)cc1CC)c1c(N[C@H](C)C(C)(C)C)c(=O)c1=O [Example 28, (R)-N-(4-Cyano-2-ethyl-phenyl)-N-[3,4-dioxo-2-(1,2,2-trimethyl-propylamino)-cyclobut-1-enyl]-propionamide]
0.2 ± 0.1 µM | CC(=O)N(c1ccc(C#N)cc1)c1c(NC(C)C(C)C)c(=O)c1=O (stereo not drawn) [Example 13, N-(4-Cyano-phenyl)-N-[2-(1,2-dimethyl-propylamino)-3,4-dioxo-cyclobut-1-enyl]-acetamide]
0.29 ± 0.04 µM | CC(Nc1c(N(C(=O)c2ccccc2)c2ccc(C#N)cc2)c(=O)c1=O)C(C)(C)C (stereo not drawn) [Example 2, N-(4-Cyano-phenyl)-N-[3,4-dioxo-2-(1,2,2-trimethyl-propylamino)-cyclobut-1-enyl]-benzamide]
1.84 ± 0.36 µM | CC(=O)N(c1ccc(C#N)cc1)c1c(NC2CC3CCC2C3)c(=O)c1=O (racemic) [Example 17, N-(endo)-[2-(Bicyclo[2,2,1]hept-2-ylamino)-3,4-dioxo-cyclobut-1-enyl]-N-(4-cyano-phenyl)-acetamide]
7.2 ± 1.6 µM | CC(=O)N(c1cccnc1)c1c(N[C@H](C)C(C)(C)C)c(=O)c1=O [Example 23, (R)-N-[3,4-Dioxo-2-(1,2,2-trimethyl-propylamino)-cyclobut-1-enyl]-N-(pyridin-3-yl)-acetamide]

SMILES | IC50
CC(=O)N(c1ccc(C#N)c(Cl)c1)c1c(N[C@H](C)C(C)(C)C)c(=O)c1=O [Example 33, (R)-(-)-N-(3-Chloro-4-cyano-phenyl)-N-[3,4-dioxo-2-(1,2,2-trimethyl-propylamino)-cyclobut-1-enyl]-acetamide] | 0.19 ± 0.01 µM
